# Laboratory results: patent US7612065B2, “Inhibitors of c-JUN N-terminal kinases (JNK)” (priority 2007, dated 2009)
# Molecular target: T1, JNK3 (Homo sapiens, UniProt P53779)
# T1 construct: One such construct encodes amino acid residues Ser40-Glu402 of JNK3α1 and is preceded by Met and Gly residues; Met-Gly (initiation methionine plus glycine added for the NcoI site); made in house; host or cells: E. coli BL21 (DE3)
# Test: JNK inhibition assay: spectrophotometric coupled-enzyme assay with activated JNK3
# Format: biochemical
# Conditions: activated JNK3 10 nM, 10 μM ATP, 200 μM EGF receptor peptide, 30° C., competitive inhibition model
# Text: A BLAST search of the EST database using the published JNK3α1 cDNA as a query identified an EST clone (#632588) that contained the entire coding sequence for human JNK3α1. Polymerase chain reactions (PCR) using pfu polymerase (Strategene) were used to introduce restriction sites into the cDNA for cloning into the pET-15B expression vector at the NcoI and BamHI sites. The protein was expressed in E. coli. […] This truncation corresponds to Ser 2 of JNK1 and JNK2 proteins, and is preceded by a methionine (initiation) and a glycine residue. The glycine residue was added in order to introduce an NcoI site for cloning into the expression vector. In addition, systematic C-terminal truncations were performed by PCR to identify a construct that give rise to diffraction-quality crystals.
# 5 mg of JNK3 was diluted to 0.5 mg/ml in 50 mM HEPES buffer, pH 7.5, containing 100 mM NaCl, 5 mM DTT, 20 mM MgCl2 and 1 mM ATP. GST-MKK7(DD) was added at a molar ratio of 1:2.5 GST-MKK7:JNK3. After incubation for 30 minutes at 25° C., the reaction mixture was concentrated 5-fold by ultrafiltration in a Centriprep-30 (Amicon, Beverly, Mass.), diluted to 10 ml and an additional 1 mM ATP added. This procedure was repeated three times to remove ADP and replenish ATP. The final addition of ATP was 5 mM and the mixture incubated overnight at 4° C.
# The activated JNK3/GST-MKK7(DD) reaction mixture was exchanged into 50 mM HEPES buffer, pH 7.5, containing 5 mM DTT and 5% glycerol (w/v) by dialysis or ultrafiltration. The reaction mixture was adjusted to 1.1 M potassium phosphate, pH 7.5, and purified by hydrophobic interaction chromatography (at 25° C.) using a Rainin Hydropore column. […] Activated JNK3 (i.e. doubly phosphorylated JNK3) was stored at −70° C. at 0.25-1 mg/ml.
# Compounds were assayed for the inhibition of JNK3 by a spectrophotometric coupled-enzyme assay. In this assay, a fixed concentration of activated JNK3 (10 nM) was incubated with various concentrations of a potential inhibitor dissolved in DMSO for 10 minutes at 30° C. in a buffer containing 0.1 M HEPES buffer, pH 7.5, containing 10 mM MgCl2, 2.5 mM phosphoenolpyruvate, 200 μM NADH, 150 μg/mL pyruvate kinase, 50 μg/mL lactate dehydrogenase, and 200 μM EGF receptor peptide. […] The reaction was initiated by the addition of 10 μM ATP and the assay plate is inserted into the spectrophotometer's assay plate compartment that was maintained at 30° C. The decrease of absorbance at 340 nm was monitored as a function of time. The rate data as a function of inhibitor concentration was fitted to competitive inhibition kinetic model to determine the Ki.
# T1 sequence (P53779 40-402): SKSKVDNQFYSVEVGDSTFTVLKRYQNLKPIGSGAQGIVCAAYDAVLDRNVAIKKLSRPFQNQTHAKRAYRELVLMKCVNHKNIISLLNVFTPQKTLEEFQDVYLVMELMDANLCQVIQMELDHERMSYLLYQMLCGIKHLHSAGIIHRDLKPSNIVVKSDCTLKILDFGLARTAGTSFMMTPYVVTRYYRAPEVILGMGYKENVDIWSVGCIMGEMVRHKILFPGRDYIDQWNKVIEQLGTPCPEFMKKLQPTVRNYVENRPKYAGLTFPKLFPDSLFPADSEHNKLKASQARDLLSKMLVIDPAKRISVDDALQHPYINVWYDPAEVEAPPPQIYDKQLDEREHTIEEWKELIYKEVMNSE
row,Compound,Ki [nM]
1,CC(C)C(=O)Nc1ccc2c(c1)N(Cc1cc(F)cc3c1OCOC3)C(=O)/C2=N\O [Compound 261],< 1000
2,COc1cc(CN2C(=O)/C(=N\O)c3ccc(OC)cc32)cc(OC)c1 [Compound 155],< 1000
3,COc1cc(CN2C(=O)/C(=N\O)c3c(C)cc(C)cc32)cc(OC)c1 [Compound 166],< 1000
4,O=C(Cc1ccccc1F)Nc1ccc2c(c1)N(Cc1cc(F)cc3c1OCOC3)C(=O)/C2=N\O [Compound 220],< 1000
5,O=C1/C(=N\O)c2cc(-c3ccc(CO)cc3)ccc2N1Cc1cc(F)cc2c1OCOC2 [Compound 283],≥ 1000
6,Cc1ccc2c(c1)/C(=N/O)C(=O)N2Cc1cccc(C(F)(F)F)c1 [Compound 1],≥ 1000
7,Cc1cc(C)c2c(c1)N(Cc1cc(F)cc3c1OCOC3)C(=O)/C2=N\O [Compound 167],< 1000
8,O=C1/C(=N\O)c2cc([N+](=O)[O-])ccc2N1Cc1ccc(Cl)cc1 [Compound 12],≥ 1000
9,O=C1/C(=N\O)c2cc(N(CC3CCCCC3)CC3CCCCC3)ccc2N1Cc1cc(F)cc2c1OCOC2 [Compound 310],≥ 1000
10,Cc1ccc(-c2ccc3c(c2)N(Cc2cc(F)cc4c2OCOC4)C(=O)/C3=N\O)cc1 [Compound 333],≥ 1000
11,O=C(O)CCc1ccc(-c2ccc3c(c2)N(Cc2cc(F)cc4c2OCOC4)C(=O)/C3=N\O)cc1 [Compound 335],< 1000
12,CCN(Cc1ccccc1)C(=O)c1ccc2c(c1)N(Cc1cc(F)cc3c1OCOC3)C(=O)/C2=N\O [Compound 242],≥ 1000
13,O=C1/C(=N\O)c2c(Cl)cc(Cl)cc2N1Cc1cc(F)cc2c1OCOC2 [Compound 196],< 1000
14,C=CCCCN1C(=O)/C(=N\O)c2cc(Br)ccc21 [Compound 160],≥ 1000
15,COc1ccccc1-c1nc(CN2C(=O)/C(=N\O)c3ccccc32)no1 [Compound 64],≥ 1000
16,O=C(Nc1ccc2c(c1)N(Cc1cc(F)cc3c1OCOC3)C(=O)/C2=N\O)c1ccc(F)cc1 [Compound 248],< 1000
17,O=C1/C(=N\O)c2cc(N(CCCc3ccccc3)CCCc3ccccc3)ccc2N1Cc1cc(F)cc2c1OCOC2 [Compound 312],≥ 1000
18,O=C1/C(=N\O)c2cc(F)ccc2N1Cc1ccc([N+](=O)[O-])cc1 [Compound 55],≥ 1000
19,O=C1/C(=N\O)c2cc(Cl)ccc2N1Cc1cccc(Oc2ccccc2)c1 [Compound 73],≥ 1000
20,O=C(NCCc1ccccn1)c1ccc2c(c1)N(Cc1cc(F)cc3c1OCOC3)C(=O)/C2=N\O [Compound 239],≥ 1000
21,N#Cc1cccc2c1/C(=N/O)C(=O)N2Cc1cc(F)cc2c1OCOC2 [Compound 212],≥ 1000
22,O=C1/C(=N\O)c2c(-c3cc4ccccc4o3)cccc2N1Cc1cc(F)cc2c1OCOC2 [Compound 206],≥ 1000

row,Compound,Ki [nM]
1,CS(=O)(=O)c1ccc(CN2C(=O)/C(=N\O)c3ccccc32)cc1 [Compound 67],≥ 1000
2,O=C1c2ccccc2C(=O)N1CCCN1C(=O)/C(=N/O)c2ccc(CBr)cc21 [Compound 187],≥ 1000
3,O=C1/C(=N\O)c2cc(Cl)ccc2N1Cc1cccc(C(F)(F)F)c1 [Compound 15],≥ 1000
4,O=C1/C(=N\O)c2ccc([N+](=O)[O-])cc2N1Cc1cc(F)cc2c1OCOC2 [Compound 207],< 1000
5,CC(=O)NCC(=O)Nc1ccc2c(c1)N(Cc1cc(F)cc3c1OCOC3)C(=O)/C2=N\O [Compound 348],≥ 1000
6,Cc1cc(C)c2c(c1)/C(=N/O)C(=O)N2Cc1ccccc1C#N [Compound 89],≥ 1000
7,O=C1/C(=N\O)c2ccc(Br)cc2N1Cc1cc(F)cc2c1OCOC2 [Compound 152],< 1000
8,O=C(Nc1ccc2c(c1)N(Cc1cc(F)cc3c1OCOC3)C(=O)/C2=N\O)c1cccc(Cl)c1Cl [Compound 251],< 1000
9,Cc1cc(Cl)cc2c1N(Cc1ccc(S(C)(=O)=O)cc1)C(=O)/C2=N\O [Compound 101],≥ 1000
10,O=C(Nc1ccc2c(c1)N(Cc1cc(F)cc3c1OCOC3)C(=O)/C2=N\O)c1cccc(Cl)c1 [Compound 255],< 1000
11,O=C1/C(=N\O)c2ccccc2N1Cc1ccc(F)cc1 [Compound 17],≥ 1000
12,COc1ccc(CN2C(=O)/C(=N\O)c3cc(F)ccc32)cc1 [Compound 78],≥ 1000
13,Cc1cc(F)ccc1C(=O)c1ccc2c(c1)/C(=N/O)C(=O)N2Cc1cc(F)cc2c1OCOC2 [Compound 319],< 1000
14,O=C1/C(=N\O)c2cc(Cl)ccc2N1Cc1ccc(Cl)c(Cl)c1 [Compound 13],< 1000
15,COc1ccc(CN2C(=O)/C(=N\O)c3cc(Cl)ccc32)cc1 [Compound 72],≥ 1000
16,O=C(O)c1cccc2c1/C(=N/O)C(=O)N2Cc1cc(F)cc2c1OCOC2 [Compound 245],≥ 1000
17,O=C(O)c1ccc(CNc2ccc3c(c2)/C(=N/O)C(=O)N3Cc2cc(F)cc3c2OCOC3)cc1 [Compound 303],≥ 1000
18,O=C(NCC1CCCO1)c1ccc2c(c1)N(Cc1cc(F)cc3c1OCOC3)C(=O)/C2=N\O (centres unmarked) [Compound 290],≥ 1000
19,O=C(Nc1ccc2c(c1)N(Cc1cc(F)cc3c1OCOC3)C(=O)/C2=N\O)c1ccccc1Cl [Compound 342],< 1000
20,Cc1ccc2c(c1)N(Cc1cc(F)cc3c1OCOC3)C(=O)/C2=N\O [Compound 149],< 1000
21,CN(C)CCNC(=O)c1ccc2c(c1)N(Cc1cc(F)cc3c1OCOC3)C(=O)/C2=N\O [Compound 295],≥ 1000
22,Cc1cc(C)c2c(c1)/C(=N/O)C(=O)N2Cc1ccc(S(C)(=O)=O)cc1 [Compound 93],≥ 1000

row,Compound,Ki [nM]
1,O=C1/C(=N\O)c2cc(NCc3ccc(O)cc3)ccc2N1Cc1cc(F)cc2c1OCOC2 [Compound 304],≥ 1000
2,CCCC(=O)Nc1ccc2c(c1)N(Cc1cc(F)cc3c1OCOC3)C(=O)/C2=N\O [Compound 224],< 1000
3,O=C(Nc1ccc2c(c1)N(Cc1cc(F)cc3c1OCOC3)C(=O)/C2=N\O)C1CCCC1 [Compound 225],< 1000
4,COc1ccc2c(CN3C(=O)/C(=N/O)c4ccc(-c5ccsc5)cc43)cc(=O)oc2c1 [Compound 184],≥ 1000
5,O=C1/C(=N\O)c2ccc(NO)cc2N1Cc1cc(F)cc2c1OCOC2 [Compound 209],< 1000
6,O=C1/C(=N\O)c2cc(F)ccc2N1Cc1cccc(F)c1 [Compound 58],≥ 1000
7,O=C(Nc1ccc2c(c1)N(Cc1cc(F)cc3c1OCOC3)C(=O)/C2=N\O)c1csc(C2COc3ccccc3O2)n1 (centres unmarked) [Compound 222],≥ 1000
8,O=C(NCCN1CCCC1)c1ccc2c(c1)N(Cc1cc(F)cc3c1OCOC3)C(=O)/C2=N\O [Compound 289],≥ 1000
9,COc1ccc(C(=O)Nc2ccc3c(c2)N(Cc2cc(F)cc4c2OCOC4)C(=O)/C3=N/O)cc1OCc1ccccc1 [Compound 321],< 1000
10,COc1ccc(-c2nc(CN3C(=O)/C(=N\O)c4ccccc43)no2)cc1 [Compound 65],≥ 1000
11,O=C(Nc1ccc2c(c1)N(Cc1cc(F)cc3c1OCOC3)C(=O)/C2=N\O)c1ccc([N+](=O)[O-])cc1 [Compound 260],< 1000
12,O=C1/C(=N\O)c2ccc(-c3ccccc3)cc2N1Cc1cc(F)cc2c1OCOC2 [Compound 153],< 1000
13,CC(C)=Cc1cccc2c1/C(=N/O)C(=O)N2Cc1cc(F)cc2c1OCOC2 [Compound 336],< 1000
14,COc1ccc(C(=O)Nc2ccc3c(c2)N(Cc2cc(F)cc4c2OCOC4)C(=O)/C3=N\O)cc1OC [Compound 339],≥ 1000
15,Cc1cc(Cl)cc2c1N(Cc1ccccn1)C(=O)/C2=N\O [Compound 104],≥ 1000
16,COC(=O)CNC(=O)c1ccc2c(c1)N(Cc1cc(F)cc3c1OCOC3)C(=O)/C2=N\O [Compound 288],≥ 1000
17,CC(C)CN1C(=O)/C(=N\O)c2cc(Br)ccc21 [Compound 159],≥ 1000
18,O=C1/C(=N\O)c2ccccc2N1Cc1cccc([N+](=O)[O-])c1 [Compound 62],< 1000
19,Cc1cc(C)c2c(c1)/C(=N/O)C(=O)N2Cc1cccc(Oc2ccccc2)c1 [Compound 92],≥ 1000
20,CS(=O)(=O)Nc1ccc2c(c1)N(Cc1cc(F)cc3c1OCOC3)C(=O)/C2=N\O [Compound 262],< 1000
21,O=C1/C(=N\O)c2cc(Cl)ccc2N1Cc1ccccn1 [Compound 76],≥ 1000
